This is an account of results in PubChem BioAssay AID330 (DTP/NCI, 2004).

Toxic doses and inconclusive results are not listed.

The subject of the experiment is P388 leukemia ip, CD2F1 mice, survival T/C. Briefly: NCI In Vivo Anticancer Drug Screen. Data for tumor model P388 Leukemia (intraperitoneal) in CD2F1 (CDF1) mice. To be noted: endpoint: median survival time, higher = longer survival. The gist of the method: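 Mice carrying the transplanted tumor received test compound or vehicle. Survival was recorded in each group, and the value is the treated-group measurement divided by that of the vehicle-treated control group.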

Where [1] appears, read: dose: 12.5 mg/kg/injection, schedule: Q01DX005 (ip), vehicle: saline.
[2] abbreviates: dose: 25.0 mg/kg/injection, schedule: Q04DX003 (ip), vehicle: saline with Tween-80.
Where [3] appears, read: dose: 60.0 mg/kg/injection, schedule: Q01DX005 (ip), vehicle: saline with Tween-80.
[4] abbreviates: dose: 120.0 mg/kg/injection, schedule: Q01DX005 (ip), vehicle: saline with Tween-80.
Where [5] appears, read: dose: 240.0 mg/kg/injection, schedule: Q01DX005 (ip), vehicle: saline with Tween-80.
Where [6] appears, read: dose: 50.0 mg/kg/injection, schedule: Q01DX005 (ip), vehicle: saline with Tween-80.
The mark [7] stands for this setting: dose: 100.0 mg/kg/injection, schedule: Q01DX005 (ip), vehicle: saline with Tween-80.
Setting [8] is: dose: 200.0 mg/kg/injection, schedule: Q01DX005 (ip), vehicle: saline with Tween-80.
Setting [9] is: dose: 50.0 mg/kg/injection, schedule: Q01DX009 (ip), vehicle: saline with Tween-80.
The mark [10] stands for this setting: dose: 100.0 mg/kg/injection, schedule: Q01DX009 (ip), vehicle: saline with Tween-80.
The mark [11] stands for this setting: dose: 200.0 mg/kg/injection, schedule: Q01DX009 (ip), vehicle: saline with Tween-80.

With `CC(C)(C)c1cc2c(c(C(C)(C)OC(=O)c3ccccc3)c1)SOC2(C)C`, the T/C under setting [1] is 101 % of control; the T/C (dose: 12.5 mg/kg/injection, schedule: Q01DX005 (ip), vehicle: suspension in saline) was 102 % of control; the T/C (dose: 25.0 mg/kg/injection, schedule: Q01DX005 (ip), vehicle: saline) was 91 % of control; the T/C (dose: 25.0 mg/kg/injection, schedule: Q01DX005 (ip), vehicle: suspension in saline) is 100 % of control; the T/C (dose: 50.0 mg/kg/injection, schedule: Q01DX005 (ip), vehicle: Klucel (hydroxypropylcellulose) (HPC)) is 100 % of control; the T/C (dose: 50.0 mg/kg/injection, schedule: Q01DX005 (ip), vehicle: saline) was 100 % of control. For the same molecule, the T/C by setting is: (dose: 50.0 mg/kg/injection, schedule: Q01DX005 (ip), vehicle: suspension in saline) 106 % of control; (dose: 100.0 mg/kg/injection, schedule: Q01DX005 (ip), vehicle: Klucel (hydroxypropylcellulose) (HPC)) 104 % of control; (dose: 100.0 mg/kg/injection, schedule: Q01DX005 (ip), vehicle: saline) 98 % of control; (dose: 100.0 mg/kg/injection, schedule: Q01DX005 (ip), vehicle: suspension in saline) 102 % of control.

`CC1(C)N=C(N)N=C(N)N1c1cccc(CCCCc2cccc(S(=O)(=O)F)c2)c1`: the T/C runs as follows: (dose: 3.9 mg/kg/injection, schedule: Q04DX003 (ip), vehicle: saline with Tween-80) 122 % of control; under setting [2], 95 % of control; (dose: 50.0 mg/kg/injection, schedule: Q04DX003 (ip), vehicle: saline with Tween-80) 90 % of control.

On to `CCC[N+]1=C/c2ccccc2OC(=O)/C=C\1[O-]`, for which the T/C by setting is: under setting [3], 101 % of control; under setting [4], 99 % of control; under setting [5], 100 % of control.

Consider `O=C(N/C(=C/c1ccc(Cl)cc1Cl)c1nc2ccccc2s1)c1ccccc1`, for which the T/C under setting [6] was 109 % of control and the T/C under setting [7] was 111 % of control.

As for `CC(Cc1ccc2c(c1)OCO2)NN` (stereo unspecified), the T/C was 102 % of control (dose: 3.12 mg/kg/injection, schedule: Q01DX005 (ip), vehicle: saline); 96 % of control (dose: 6.25 mg/kg/injection, schedule: Q01DX005 (ip), vehicle: saline); 98 % of control under setting [1].

In the case of `O=C(O)CNC(=O)C(=O)c1c[nH]c2ccc([N+](=O)[O-])cc12`, the T/C under setting [3] is 97 % of control, the T/C under setting [4] was 97 % of control and the T/C under setting [5] was 94 % of control.

Regarding `O=C(CS(=O)(=O)c1ccccc1)CS(=O)(=O)c1ccccc1`, the T/C is 96 % of control (dose: 50.0 mg/kg/injection, schedule: Q01DX009 (ip), vehicle: Klucel (hydroxypropylcellulose) (HPC)); 98 % of control (dose: 100.0 mg/kg/injection, schedule: Q01DX009 (ip), vehicle: Klucel (hydroxypropylcellulose) (HPC)); 99 % of control (dose: 200.0 mg/kg/injection, schedule: Q01DX009 (ip), vehicle: Klucel (hydroxypropylcellulose) (HPC)).

For the molecule `Nc1nc(-c2ccc(Cl)cc2)nc2sc3c(c12)CCCCC3`, the T/C was 90 % of control under setting [6], 90 % of control under setting [7] and 95 % of control under setting [8].

In the case of `COC(C(=O)C(O)C(C)O)C1Cc2cc3cc(OC4CC(OC(C)=O)C(OC5CC(O)C(OC)C(C)O5)C(C)O4)cc(O)c3c(O)c2C(=O)C1OC1CC(OC2CC(OC3CC(C)(O)C(OC(=O)C(C)C)C(C)O3)C(O)C(C)O2)C(O)C(C)O1` (stereo unspecified), the T/C is, setting by setting: (dose: 0.02 mg/kg/injection, schedule: Q01DX010 (ip), vehicle: saline) 100 % of control; (dose: 0.05 mg/kg/injection, schedule: Q01DX010 (ip), vehicle: saline) 100 % of control; (dose: 0.2 mg/kg/injection, schedule: Q01DX009 (ip), vehicle: saline) 183 % of control; (dose: 0.4 mg/kg/injection, schedule: Q01DX009 (ip), vehicle: saline) 122 % of control; (dose: 3.2 mg/kg/injection, schedule: Q01DX010 (ip), vehicle: saline) 90 % of control.

On to `O=c1[nH]c(-c2ccncc2)nnc1-c1ccc(Cl)cc1`, for which the T/C was 88 % of control (dose: 100.0 mg/kg/injection, schedule: Q04DX002 (ip), vehicle: saline with Tween-80) and 93 % of control (dose: 200.0 mg/kg/injection, schedule: Q04DX002 (ip), vehicle: saline with Tween-80).

Consider `COC(=O)/C=C1\C[C@H]2C[C@]3(O)O[C@H](C[C@@H](O)CC(=O)O[C@@H]([C@@H](C)O)C[C@@H]4C/C(=C\C(=O)OC)[C@H](OC(C)=O)[C@@](O)(O4)C(C)(C)/C=C/[C@@H](C1)O2)C[C@H](OC(=O)CC(C)C)C3(C)C`, for which the T/C (dose: 3.0 micrograms/kg/injection, schedule: Q01DX009 (ip), vehicle: saline + alcohol) is 111 % of control and the T/C (dose: 5.0 micrograms/kg/injection, schedule: Q01DX009 (ip), vehicle: saline + alcohol) is 113 % of control.

For the molecule `COc1ccc(C2COc3c(ccc(O)c3C)C2)cc1OC` (stereo unspecified), the T/C is 97 % of control under setting [3], 97 % of control under setting [4] and 95 % of control under setting [5].

Turning to `O=C1CSCC(=O)OCCOCCSCCOCCO1`, the T/C was 92 % of control (dose: 100.0 mg/kg/injection, schedule: Q04DX003 (ip), vehicle: suspension in saline); 99 % of control (dose: 200.0 mg/kg/injection, schedule: Q04DX003 (ip), vehicle: suspension in saline); 101 % of control (dose: 400.0 mg/kg/injection, schedule: Q04DX003 (ip), vehicle: suspension in saline).

Regarding `CCOc1ccc2nc3cc(N)ccc3c(N)c2c1`, the T/C (dose: 44.0 mg/kg/injection, schedule: Q04DX003 (ip), vehicle: saline) is 118 % of control; the T/C (dose: 66.0 mg/kg/injection, schedule: Q04DX003 (ip), vehicle: saline) was 118 % of control; the T/C (dose: 100.0 mg/kg/injection, schedule: Q04DX003 (ip), vehicle: saline) is 118 % of control; the T/C (dose: 150.0 mg/kg/injection, schedule: Q04DX003 (ip), vehicle: saline) is 118 % of control.

`O=[N+]([O-])c1ccc(N=Nc2ccc(NNc3ccc([N+](=O)[O-])cn3)c3cc4ccccc4cc23)nc1`: the T/C was 100 % of control under setting [6] and 110 % of control under setting [7].

For the molecule `O=C1CC2(C(=O)O1)C1C(=O)OC(=O)C1C1c3ccccc3C=NN12` (stereo unspecified), the T/C runs as follows: under setting [9], 98 % of control; under setting [10], 93 % of control; under setting [11], 100 % of control.

`O=CC(Br)C(Br)c1ccccc1` (stereo unspecified): the T/C (dose: 6.25 mg/kg/injection, schedule: Q01DX009 (ip), vehicle: saline with Tween-80) was 122 % of control; the T/C (dose: 6.25 mg/kg/injection, schedule: Q04DX003 (ip), vehicle: saline with Tween-80) was 109 % of control; the T/C (dose: 12.5 mg/kg/injection, schedule: Q01DX009 (ip), vehicle: saline with Tween-80) was 109 % of control; the T/C (dose: 12.5 mg/kg/injection, schedule: Q04DX003 (ip), vehicle: saline with Tween-80) is 109 % of control; the T/C (dose: 25.0 mg/kg/injection, schedule: Q01DX009 (ip), vehicle: saline with Tween-80) is 100 % of control; the T/C under setting [2] was 113 % of control.

On to `CCOC(=O)C/C(C)=N\N(C)C(N)=O`, for which the T/C is 91 % of control (dose: 50.0 mg/kg/injection, schedule: Q01DX009 (ip), vehicle: saline) and 94 % of control (dose: 100.0 mg/kg/injection, schedule: Q01DX009 (ip), vehicle: saline).

`NC1[N-]C(C2CCCC[N-]2)CC2CCCCC21.O=[N+]([O-])O.O=[N+]([O-])O.[Cu+2]` (stereo unspecified): the T/C runs as follows: (dose: 6.25 mg/kg/injection, schedule: Q04DX002 (ip), vehicle: suspension in saline) 103 % of control; (dose: 12.5 mg/kg/injection, schedule: Q04DX002 (ip), vehicle: suspension in saline) 111 % of control.

Regarding `O=C(NCCN(C(=O)C(F)(F)F)c1ccc(F)cc1)C(F)(F)F`, the T/C by setting is: under setting [9], 100 % of control; under setting [10], 100 % of control; under setting [11], 101 % of control.

In the case of `COC(=O)/C=C/c1cc(=O)n2c(nc3ccccc32)s1`, the T/C reads like this: (dose: 15.0 mg/kg/injection, schedule: Q01DX005 (ip), vehicle: Klucel (hydroxypropylcellulose) (HPC)) 100 % of control; (dose: 30.0 mg/kg/injection, schedule: Q01DX005 (ip), vehicle: Klucel (hydroxypropylcellulose) (HPC)) 89 % of control; (dose: 60.0 mg/kg/injection, schedule: Q01DX005 (ip), vehicle: Klucel (hydroxypropylcellulose) (HPC)) 86 % of control.

As to `CCOC(=O)C(N=Nc1ccc(C)cc1Br)C(C)=O` (stereo unspecified), the T/C under setting [6] is 102 % of control, the T/C under setting [7] was 93 % of control and the T/C under setting [8] was 93 % of control.

Turning to `CC1=NN(C(=O)c2ccncc2)C(=O)C1N=Nc1ccc(S(=O)(=O)N=C(N)N)cc1` (stereo unspecified), the T/C reads like this: under setting [9], 97 % of control; under setting [10], 94 % of control; under setting [11], 90 % of control.
